In patent US11702418B2, “SOS1 inhibitors” (priority 2019, dated 2023):
Structures can show the parent of a compound that is named as a salt. Where two headings read alike, the source gives them in different places.

What was measured:
[1] = test system: pERK in NCI-H1435 cells (NF-1 mutant); assay: pERK inhibition in NF-1 mutant NCI-H1435 cells (Example F); type: cell-based; conditions: NCI-H1435, 1 h, read-out: IC50, pERK inhibition
Method: The formaldehyde was discarded from the plates and 150 μL of ice-cold methanol was added to permeabilize the cells for 10 minutes at −20° C. The methanol was discarded from each of the plates and any liquid remaining in the plate by tapping the plate against paper towels. […] The plates were incubated overnight at 4° C. on a shaker.
On Assay day 2, the primary antibody solution was removed. […] The secondary antibody solution as removed and each plate was washed with PBST 3× times. Any liquid remaining was discarded and the plate was imaged using the Licor Odyssey machine according to the manufacturer's instruction, using a set focus length at 3 mm and both 800 nm and 700 nm filters. The GAPDH normalized scan values for each well were divided by the average of vehicle wells to get the % of pERK inhibition. The IC50 values were then calculated with the Graph pad Prism software.

pERK in MKN1 cells = assay: cells; type: cell-based; conditions: Homo sapiens
[2] = target: recombinant human SOS1 polypeptide (amino acids 560-1049) (Homo sapiens (Human), UniProt Q07889); assay: biochemical; type: binding; conditions: read-out: Ki, Inhibition of Labeled Tracer Binding to SOS1
[3] = MKN-1, pERK inhibition, In-Cell Western, MKN1 or H358 cells (Table 24 does not say which), 0.5-1 hour incubation, read-out: IC50
[4] = HTRF displacement, Cy5 labelled tracer, Morrison equation for competitive binding
[5] = MKN-1, pERK inhibition, In-Cell Western, MKN1 or H358 cells (Table 24 does not say which), 0.5-1 hour incubation

recombinant human SOS1 polypeptide (amino acids 560-1049), sequence (Q07889 560-1049): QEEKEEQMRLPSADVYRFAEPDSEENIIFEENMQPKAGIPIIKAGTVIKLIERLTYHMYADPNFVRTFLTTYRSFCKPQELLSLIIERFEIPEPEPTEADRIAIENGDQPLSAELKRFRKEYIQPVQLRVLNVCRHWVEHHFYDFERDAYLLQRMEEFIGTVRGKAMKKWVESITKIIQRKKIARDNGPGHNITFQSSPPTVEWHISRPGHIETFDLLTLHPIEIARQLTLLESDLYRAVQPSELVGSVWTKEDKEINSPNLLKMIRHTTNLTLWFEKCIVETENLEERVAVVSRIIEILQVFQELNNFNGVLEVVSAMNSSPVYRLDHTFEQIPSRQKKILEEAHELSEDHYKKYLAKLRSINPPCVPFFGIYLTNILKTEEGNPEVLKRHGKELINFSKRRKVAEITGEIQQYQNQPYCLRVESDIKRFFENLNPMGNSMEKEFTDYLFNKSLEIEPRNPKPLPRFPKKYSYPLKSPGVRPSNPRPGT

Molecule `Cc1c([C@@H](C)Nc2nnc(C)c3ccc(N4CCN(C(=O)C5COC5)CC4)cc23)cccc1C(F)(F)F` [Example 11-1, (R)-(4-(1-methyl-4-((1-(2-methyl-3-(trifluoromethyl)phenyl)ethyl)amino)phthalazin-6-yl)piperazin-1-yl)(oxetan-3-yl)methanone] has an IC50 [1] of 6 nM, an IC50 (pERK in MKN1 cells; [3]) of 10 nM and a Ki [2, 4] of 0.01 nM.
For `Cc1c([C@@H](C)Nc2nnc(C)c3cnc(N4CCOCC4)cc23)cccc1C(F)(F)F` [Example 6-12, (R)-4-methyl-N-(1-(2-methyl-3-(trifluoromethyl)phenyl)ethyl)-7-morpholinopyrido[3,4-d]pyridazin-1-amine], the IC50 [1] was 63 nM.
In the case of `Cc1nnc(N[C@H](C)c2cc(N)cc(C(F)(F)F)c2)c2cc(N3CCOCC3)ccc12` [Example 6-5, (R)-N-(1-(3-amino-5-(trifluoromethyl)phenyl)ethyl)-4-methyl-7-morpholinophthalazin-1-amine], the IC50 [1] is reported as 9 nM, the IC50 (pERK in MKN1 cells; [3]) is reported as 10 nM and the Ki [2, 4] is reported as 0.12 nM.
`CNCc1c(F)cccc1-c1ccc([C@@H](C)Nc2nnc(C)c3ccc(N4CCOCC4)cc23)s1` [Example 6-6, (R)-N-(1-(5-(3-fluoro-2-((methylamino)methyl)phenyl)thiophen-2-yl)ethyl)-4-methyl-7-morpholinophthalazin-1-amine] was tested, and the IC50 [1] was 29 nM, the IC50 (pERK in MKN1 cells; [3]) was 40 nM and the Ki [2, 4] was 0.11 nM.
`Cc1c([C@@H](C)Nc2nnc(C)c3ccc(O[C@H]4CCNC4)cc23)cccc1C(F)(F)F` [Example 7-3, 4-methyl-N-((R)-1-(2-methyl-3-(trifluoromethyl)phenyl)ethyl)-7-(((S)-pyrrolidin-3-yl)oxy)phthalazin-1-amine] was tested, and the IC50 [1] was 55 nM, the IC50 (pERK in MKN1 cells; [3]) was 28 nM and the Ki [2, 4] was 0.32 nM.
For `Cc1c([C@@H](C)Nc2nnc(C)c3ccc(N4CCN(C(=O)C5(C(F)(F)F)CC5)CC4)cc23)cccc1C(F)(F)F` [Example 11-3, (R)-(4-(1-methyl-4-((1-(2-methyl-3-(trifluoromethyl)phenyl)ethyl)amino)phthalazin-6-yl)piperazin-1-yl)(1-(trifluoromethyl)cyclopropyl)methanone], the IC50 [1] was 62 nM, the IC50 (pERK in MKN1 cells; [3]) was 48 nM and the Ki [2, 4] was less than 0.01 nM.
`Cc1c([C@@H](C)Nc2nnc(C)c3cnc(N4CCNCC4)cc23)cccc1C(F)(F)F` [Example 6-9, (R)-4-methyl-N-(1-(2-methyl-3-(trifluoromethyl)phenyl)ethyl)-7-(piperazin-1-yl)pyrido[3,4-d]pyridazin-1-amine] was tested, and the IC50 [1] was 52 nM.
`Cc1c([C@@H](C)Nc2nnc(C)c3ccc(N4CCC5(CCNC5=O)CC4)cc23)cccc1C(F)(F)F` [Example 10-38, (R)-8-(1-methyl-4-((1-(2-methyl-3-(trifluoromethyl)phenyl)ethyl)amino)phthalazin-6-yl)-2,8-diazaspiro[4.5]decan-1-one] showed an IC50 (pERK in MKN1 cells; [3]) of 29 nM and a Ki [2, 4] of 0.71 nM.
`Cc1c(C#N)cccc1[C@@H](C)Nc1nnc(C)c2ccc(N3CCNCC3)cc12` [Example 10-55, (R)-2-methyl-3-(1-((4-methyl-7-(piperazin-1-yl)phthalazin-1-yl)amino)ethyl)benzonitrile Formate salt] showed an IC50 (pERK in MKN1 cells; MKN-1) of 76 nM and a Ki [2] of 0.76 nM.
For `Cc1c([C@@H](C)Nc2nnc(C)c3ccc(N4CC[C@H](N(C)C)C(F)(F)C4)cc23)cccc1C(F)(F)F` [Example 21-6, 7-((S)-4-(dimethylamino)-3,3-difluoropiperidin-1-yl)-4-methyl-N—((R)-1-(2-methyl-3-(trifluoromethyl)phenyl)ethyl)phthalazin-1-amine], the IC50 (pERK in MKN1 cells; [3]) was 176 nM and the Ki [2, 4] was 0.93 nM.
`Cc1cc(C#N)cc([C@@H](C)Nc2nnc(C)c3cnc(N4CCOCC4)cc23)c1` [Example 21-3, (R)-3-methyl-5-(1-((4-methyl-7-morpholinopyrido[3,4-d]pyridazin-1-yl)amino)ethyl)benzonitrile] was tested, and the IC50 (pERK in MKN1 cells; [5]) was 221 nM and the Ki [2] was 14.4 nM.
For `Cc1cc(F)ccc1[C@@H](C)Nc1nnc(C)c2cnc(N3CCN4CCOC[C@@H]4C3)cc12` [Example 12-79], the IC50 (pERK in MKN1 cells; [3]) was 173 nM and the Ki [2, 4] was 36.3 nM.
`Cc1c([C@@H](C)Nc2nnc(C)c3ccc(N4CCNC5(CC5)C4)cc23)cccc1C(F)(F)F` [Example 10-34, (R)-4-methyl-N-(1-(2-methyl-3-(trifluoromethyl)phenyl)ethyl)-7-(4,7-diazaspiro[2.5]octan-7-yl)phthalazin-1-amine] was tested, and the IC50 (pERK in MKN1 cells; [3]) was 136 nM and the Ki [2, 4] was 0.56 nM.
`Cc1c([C@@H](C)Nc2nnc(C)c3cc(F)c(N4CCNCC4)cc23)cccc1C(F)(F)F` [Example 18-1, (R)-6-fluoro-4-methyl-N-(1-(2-methyl-3-(trifluoromethyl)phenyl)ethyl)-7-(piperazin-1-yl)phthalazin-1-amine] was tested, and the IC50 (pERK in MKN1 cells; [5]) was 128 nM and the Ki [2] was 0.98 nM.
In the case of `CNCc1c(F)cccc1-c1ccc([C@@H](C)Nc2nnc(C)c3cnc(N4CCOCC4)cc23)s1` [Example 6-13, (R)-N-(1-(5-(3-fluoro-2-((methylamino)methyl)phenyl)thiophen-2-yl)ethyl)-4-methyl-7-morpholinopyrido[3,4-d]pyridazin-1-amine], the IC50 (pERK in MKN1 cells; [3]) is reported as 20 nM and the Ki [2, 4] is reported as 0.29 nM.
`Cc1c([C@@H](C)Nc2nnc(C)c3ccc(N4CC(C)(O)C4)cc23)cccc1C(F)(F)F` [Example 10-47, (R)-3-methyl-1-(1-methyl-4-((1-(2-methyl-3-(trifluoromethyl)phenyl)ethyl)amino)phthalazin-6-yl)azetidin-3-ol] gave an IC50 (pERK in MKN1 cells; [3]) of 55 nM and a Ki [2, 4] of 1.19 nM.
`Cc1c([C@@H](C)Nc2nnc(C)c3ccc(OC[C@H]4CCCN4C)cc23)cccc1C(F)(F)F` [Example 10-25, 4-methyl-N-((R)-1-(2-methyl-3-(trifluoromethyl)phenyl)ethyl)-7-(((R)-1-methylpyrrolidin-2-yl)methoxy)phthalazin-1-amine hydrochloride salt] was tested, and the IC50 (pERK in MKN1 cells; MKN-1) was 103 nM and the Ki [2] was 1.47 nM.
`Cc1c(C#N)cccc1[C@@H](C)Nc1nnc(C)c2ccc(N3CC4(CCN(C)C4=O)C3)cc12` [Example 10-69, (R)-2-methyl-3-(1-((4-methyl-7-(6-methyl-5-oxo-2,6-diazaspiro[3.4]octan-2-yl)phthalazin-1-yl)amino)ethyl)benzonitrile] was tested, and the IC50 (pERK in MKN1 cells; [3]) was 39 nM and the Ki [2, 4] was 3.07 nM.
Molecule `Cc1c([C@@H](C)Nc2nnc(C)c3cnc(N4CC5(CCNC5=O)C4)cc23)cccc1C(F)(F)F` [Example 12-32] has an IC50 (pERK in MKN1 cells; [3]) of 18 nM and a Ki [2, 4] of 0.97 nM.
Molecule `Cc1nnc(N[C@H](C)c2cccc(C(F)(F)F)c2F)c2cc(N3C[C@H]4CC[C@@H]3CN4C)ncc12` [Example 12-60] has an IC50 (pERK in MKN1 cells; [3]) of 24 nM and a Ki [2, 4] of 0.25 nM.
Molecule `Cc1c([C@@H](C)Nc2nnc(C)c3cnc(N4C[C@H]5C[C@@H]4CO5)cc23)cccc1C(F)(F)F` [Example 12-9] has an IC50 (pERK in MKN1 cells; [3]) of 10 nM and a Ki [2, 4] of 0.47 nM.
`CNCc1ccccc1-c1ccc([C@@H](C)Nc2nnc(C(F)(F)F)c3ccc(N4CCOCC4)cc23)s1` [Example 10-2, (R)—N-(1-(5-(2-((methylamino)methyl)phenyl)thiophen-2-yl)ethyl)-7-morpholino-4-(trifluoromethyl)phthalazin-1-amine] was tested, and the IC50 (pERK in MKN1 cells; [3]) was 1370 nM and the Ki [2, 4] was 14.9 nM.
`Cc1c([C@@H](C)Nc2nnc(C)c3ccc(N4CC5CCC(C4)N5C)cc23)cccc1C(F)(F)F` [Example 10-29, 4-methyl-N-((R)-1-(2-methyl-3-(trifluoromethyl)phenyl)ethyl)-7-(8-methyl-3,8-diazabicyclo[3.2.1]octan-3-yl)phthalazin-1-amine hydrochloride salt] showed an IC50 (pERK in MKN1 cells; MKN-1) of 70 nM and a Ki [2] of 0.39 nM.
`Cc1nnc(N[C@H](C)c2cc(F)cc(C(F)(F)F)c2)c2cc(N3CCOCC3)ccc12` [Example 10-50, (R)-N-(1-(3-fluoro-5-(trifluoromethyl)phenyl)ethyl)-4-methyl-7-morpholinophthalazin-1-amine] showed an IC50 (pERK in MKN1 cells; [3]) of 205 nM and a Ki [2, 4] of 3.74 nM.
With `Cc1nnc(N[C@H](C)c2cccc(F)c2F)c2cc(N3CC(C)(O)C3)ncc12` [Example 12-56] the IC50 (pERK in MKN1 cells; [3]) was 301 nM and the Ki [2, 4] was 31.1 nM.
With `Cc1cc(F)ccc1[C@@H](C)Nc1nnc(C)c2cnc(N3CC(C)(O)C3)cc12` [Example 12-57] the IC50 (pERK in MKN1 cells; [3]) was 1860 nM and the Ki [2, 4] was 92.2 nM.
`Cc1c(C#N)cccc1[C@@H](C)Nc1nnc(C)c2cnc(N3C[C@H]4CC[C@@H]3CN4C)cc12` [Example 12-40] was tested, and the IC50 (pERK in MKN1 cells; [3]) was 24 nM and the Ki [2, 4] was 0.64 nM.
With `Cc1c(C#N)cccc1[C@@H](C)Nc1nnc(C)c2cnc(N3CC4(CCN(C)C4)C3)cc12` [Example 12-51] the IC50 (pERK in MKN1 cells; [3]) was 48 nM and the Ki [2, 4] was 0.79 nM.
In the case of `Cc1nnc(N[C@H](C)c2cccc(C(F)(F)F)c2F)c2cc(N3CC(N(C)C)C3)ccc12` [Example 10-76, (R)-7-(3-(dimethylamino)azetidin-1-yl)-N-(1-(2-fluoro-3-(trifluoromethyl)phenyl)ethyl)-4-methylphthalazin-1-amine], the IC50 (pERK in MKN1 cells; [3]) is reported as 85 nM and the Ki [2, 4] is reported as 3.44 nM.
In the case of `Cc1nnc(N[C@H](C)c2cc(N)cc(C(F)(F)F)n2)c2cc(N3CC(C)(O)C3)ccc12` [Example 16-10, (R)-1-(4-((1-(4-amino-6-(trifluoromethyl)pyridin-2-yl)ethyl)amino)-1-methylphthalazin-6-yl)-3-methylazetidin-3-ol], the IC50 (pERK in MKN1 cells; [3]) is reported as 919 nM and the Ki [2, 4] is reported as 81 nM.
With `Cc1c([C@@H](C)Nc2nnc(C)c3ccc(N4CCC(N5CCC5)CC4)cc23)cccc1C(F)(F)F` [Example 10-30, (R)-7-(4-(azetidin-1-yl)piperidin-1-yl)-4-methyl-N-(1-(2-methyl-3-(trifluoromethyl)phenyl)ethyl)phthalazin-1-amine hydrochloride salt] the IC50 (pERK in MKN1 cells; MKN-1) was 48 nM and the Ki [2] was 0.41 nM.
Work on `Cc1c(C#N)cccc1[C@@H](C)Nc1nnc(C)c2cc(C(F)(F)F)c(N3CC(C)(N(C)C)C3)cc12` [Example 19-1, (R)-3-(1-((7-(3-(dimethylamino)-3-methylazetidin-1-yl)-4-methyl-6-(trifluoromethyl)phthalazin-1-yl)amino)ethyl)-2-methylbenzonitrile] yielded an IC50 (pERK in MKN1 cells; [3]) of 156 nM and a Ki [2, 4] of 6.16 nM.
